Test [1] has as its target T1, Human Tryptophan 2,3-dioxygenase (TDO) (Homo sapiens, UniProt P48775).
T1 construct: His tag (N); made in house; host or cells: E. coli
The experiment in a line: Human TDO enzymatic assay (kynurenine level). The class given is biochemical. The note with it: 1 nM TDO, 350 μM L-Trp; geometric mean; read-out: TDO GMean: IC50 (μM) (Biochemical Assay). In short, it runs like this: (§1)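 IDO conditions: 6 nM His-IDO, 10 μM L-Trp, 5 μM methylene blue, 20 min, RT. TDO conditions: 1 nM His-TDO, 350 μM L-Trp, 0.4 μM methylene blue, 70 min, RT. Both used pH 6.5 phosphate plus ascorbate/catalase, TCA stop at 50° C, kynurenine readout, nonlinear-regression IC50.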

In test [2] the target is T2, Human Indoleamine 2,3-dioxygenase (IDO) (Homo sapiens, UniProt P14902).
T2 construct: His tag (N); made in house; host or cells: E. coli
Nature of the test: Human IDO enzymatic assay (kynurenine level). It is filed as biochemical. The note with it: 6 nM IDO, 10 μM L-Trp; geometric mean; read-out: IDO1 GMean: IC50 (μM) (Biochemical Assay). The gist of the method:
as §1

Test [3] addresses T3, human TDO (TDO-expressing HEK293 cells) (Homo sapiens, UniProt P48775).
T3 construct: expressed in transfected cells
Nature of the test: Cell based kynurenine assay, TDO-expressing HEK293 cell clones. The note with it: TDO-expressing HEK293 cells, 24 hours, geometric mean; read-out: HEK293 TDO Kynurenine GMean IC50 (μM) (Cellular Assay). The gist of the method:
(§2)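 Kynurenine in culture supernatant read after 24 h compound exposure of HEK293 cells stably expressing human IDO1 or TDO. IC50 from nonlinear regression of % inhibition relative to 0.2% DMSO cell (high) and media-only (low) controls.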

Test [4] has as its target T4, human IDO (IDO1-expressing HEK293 cells) (Homo sapiens, UniProt P14902).
T4 construct: expressed in transfected cells
The experiment in a line: Cell based kynurenine assay, IDO1-expressing HEK293 cell clones. The conditions noted are these: IDO1-expressing HEK293 cells, 24 hours, geometric mean; read-out: HEK293 IDO1 Kynurenine GMean IC50 (μM) (Cellular Assay). In short, it runs like this: as §2

Usually IC50 stands for the point on the concentration scale where inhibition reaches its midpoint.

T3 sequence (P48775 whole entry): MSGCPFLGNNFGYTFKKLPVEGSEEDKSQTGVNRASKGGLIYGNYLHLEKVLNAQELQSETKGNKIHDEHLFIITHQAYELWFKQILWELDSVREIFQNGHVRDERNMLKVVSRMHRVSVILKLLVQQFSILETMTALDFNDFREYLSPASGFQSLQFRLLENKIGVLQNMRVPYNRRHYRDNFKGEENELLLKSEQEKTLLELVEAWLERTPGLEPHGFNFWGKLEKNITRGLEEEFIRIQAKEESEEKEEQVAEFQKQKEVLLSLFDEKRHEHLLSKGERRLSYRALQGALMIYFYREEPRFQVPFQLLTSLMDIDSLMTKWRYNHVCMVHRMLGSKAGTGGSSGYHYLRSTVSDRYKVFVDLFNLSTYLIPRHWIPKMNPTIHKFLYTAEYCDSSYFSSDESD
T1 sequence (P48775 whole entry): as above
T4 sequence (P14902 whole entry): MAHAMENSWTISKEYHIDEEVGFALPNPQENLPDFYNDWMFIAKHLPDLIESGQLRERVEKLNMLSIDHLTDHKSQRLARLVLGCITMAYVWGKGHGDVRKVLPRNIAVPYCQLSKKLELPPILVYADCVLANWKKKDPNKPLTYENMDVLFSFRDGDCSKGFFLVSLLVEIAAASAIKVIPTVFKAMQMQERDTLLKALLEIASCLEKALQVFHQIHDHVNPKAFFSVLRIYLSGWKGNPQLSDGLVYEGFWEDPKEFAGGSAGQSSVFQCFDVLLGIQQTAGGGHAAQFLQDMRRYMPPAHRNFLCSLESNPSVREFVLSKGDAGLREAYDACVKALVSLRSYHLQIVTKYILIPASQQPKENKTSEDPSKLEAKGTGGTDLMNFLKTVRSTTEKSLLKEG
T2 sequence (P14902 whole entry): as above

With `COCCNC(=O)N1CCC(C(C)(C)C(O)c2c(F)c(Cl)cc3cn[nH]c23)CC1` (stereo not drawn) [Compound P-0419, 4-(1-(5-chloro-6-fluoro-1H-indazol-7-yl)-1-hydroxy-2-methylpropan-2-yl)-N-(2-methoxyethyl) piperidine-1-carboxamide], the IC50 in test [1], in test [2], in test [3] and in test [4] was 0.0001 to 10 µM throughout.

For `COCCCNC(=O)N1CCC(C(C)(C)C(O)c2c(F)c(Cl)cc3cn[nH]c23)CC1` (stereo not drawn) [Compound P-0420, 4-(1-(5-chloro-6-fluoro-1H-indazol-7-yl)-1-hydroxy-2-methylpropan-2-yl)-N-(3-methoxypropyl) piperidine-1-carboxamide], the IC50 in test [1], in test [2], in test [3] and in test [4] was 0.0001 to 10 µM in each case.

As for `CCC(=O)N1CCC(C(C)(C)C(O)c2c(F)c(Cl)cc3cn[nH]c23)CC1` (stereo not drawn) [Compound P-0421, 1-(4-(1-(5-chloro-6-fluoro-1H-indazol-7-yl)-1-hydroxy-2-methylpropan-2-yl)piperidin-1-yl)propan-1-one], the half-maximal inhibitory concentration (IC50) in test [1], in test [2], in test [3] and in test [4] was 0.0001 to 10 µM each time.

For the compound `CC(=O)N1CCC(C(C)(C)[C@@H](O)c2cc(Cl)cc3cn[nH]c23)CC1` [Compound P-0422, (R)-1-(4-(1-(5-chloro-1H-indazol-7-yl)-1-hydroxy-2-methylpropan-2-yl)piperidin-1-yl)ethan-1-one], the IC50 in test [1], in test [2], in test [3] and in test [4] was 0.0001 to 10 µM each time.

For `CCC(=O)N1CCC(C(C)(C)[C@@H](O)c2cc(Cl)cc3cn[nH]c23)CC1` [Compound P-0423, (R)-1-(4-(1-(5-chloro-1H-indazol-7-yl)-1-hydroxy-2-methylpropan-2-yl)piperidin-1-yl)propan-1-one], the IC50 in test [1], in test [2], in test [3] and in test [4] was 0.0001 to 10 µM in each case.

In the case of `CC(C)(C1CCN(C(=O)C2CC2)CC1)[C@@H](O)c1cc(Cl)cc2cn[nH]c12` [Compound P-0424, (R)-(4-(1-(5-chloro-1H-indazol-7-yl)-1-hydroxy-2-methylpropan-2-yl)piperidin-1-yl)(cyclopropyl) methanone], the IC50 in test [1] was 0.0001 to 10 µM; in test [2], 0.0001 to 10 µM; in test [3] it was 0.0001 to 10 µM; in test [4], over 10 µM.

In the case of `COCCNC(=O)N1CCC(C(C)(C)[C@@H](O)c2cc(Cl)cc3cn[nH]c23)CC1` [Compound P-0425, (R)-4-(1-(5-chloro-1H-indazol-7-yl)-1-hydroxy-2-methylpropan-2-yl)-N-(2-methoxyethyl) piperidine-1-carboxamide], the IC50 in test [1], in test [2], in test [3] and in test [4] was 0.0001 to 10 µM in each case.

Turning to `CC(C)(C1CCN(C(N)=O)CC1)[C@@H](O)c1cc(Cl)cc2cn[nH]c12` [Compound P-0426, (R)-4-(1-(5-chloro-1H-indazol-7-yl)-1-hydroxy-2-methylpropan-2-yl)piperidine-1-carboxamide], the IC50 in test [1] was 0.0001 to 10 µM; in test [2], 0.0001 to 10 µM; in test [3], 0.0001 to 10 µM; in test [4] it was over 10 µM.

As to `CNC(=O)N1CCC(C(C)(C)[C@@H](O)c2cc(Cl)cc3cn[nH]c23)CC1` [Compound P-0427, (R)-4-(1-(5-chloro-1H-indazol-7-yl)-1-hydroxy-2-methylpropan-2-yl)-N-methylpiperidine-1-carboxamide], the IC50 in test [1], in test [2], in test [3] and in test [4] was 0.0001 to 10 µM each time.

For `CCNC(=O)N1CCC(C(C)(C)[C@@H](O)c2cc(Cl)cc3cn[nH]c23)CC1` [Compound P-0428, (R)-4-(1-(5-chloro-1H-indazol-7-yl)-1-hydroxy-2-methylpropan-2-yl)-N-ethylpiperidine-1-carboxamide], the IC50 in test [1] was 0.0001 to 10 µM; in test [2], 0.0001 to 10 µM; in test [3] it was 0.0001 to 10 µM; in test [4], over 10 µM.

For `CC(C)NC(=O)N1CCC(C(C)(C)[C@@H](O)c2cc(Cl)cc3cn[nH]c23)CC1` [Compound P-0429, (R)-4-(1-(5-chloro-1H-indazol-7-yl)-1-hydroxy-2-methylpropan-2-yl)-N-isopropylpiperidine-1-carboxamide], the IC50 in test [1] was 0.0001 to 10 µM; in test [2] it was 0.0001 to 10 µM; in test [3], 0.0001 to 10 µM; in test [4], over 10 µM.

Regarding `CC(C)(C1CCN(C(=O)Nc2cccnc2)CC1)[C@@H](O)c1cc(Cl)cc2cn[nH]c12` [Compound P-0430, (R)-4-(1-(5-chloro-1H-indazol-7-yl)-1-hydroxy-2-methylpropan-2-yl)-N-(pyridin-3-yl)piperidine-1-carboxamide], the half-inhibitory concentration (IC50) in test [1], in test [2], in test [3] and in test [4] was 0.0001 to 10 µM throughout.

In the case of `CC(C)(C1CCN(C(=O)Nc2ccccc2)CC1)[C@@H](O)c1cc(Cl)cc2cn[nH]c12` [Compound P-0431, (R)-4-(1-(5-chloro-1H-indazol-7-yl)-1-hydroxy-2-methylpropan-2-yl)-N-phenylpiperidine-1-carboxamide], the IC50 was in the range of 0.0001 to 10 µM in test [1], 10 to 100 µM in test [2], 0.0001 to 10 µM in test [3] and 0.0001 to 10 µM in test [4].

Consider `CC(C)(C1CCN(C(=O)Nc2ccccc2Cl)CC1)[C@@H](O)c1cc(Cl)cc2cn[nH]c12` [Compound P-0432, (R)-4-(1-(5-chloro-1H-indazol-7-yl)-1-hydroxy-2-methylpropan-2-yl)-N-(2-chlorophenyl) piperidine-1-carboxamide], for which the IC50 in test [1] is 0.0001 to 10 µM; in test [2] it was 0.0001 to 10 µM; in test [3] it was 0.0001 to 10 µM; in test [4], over 10 µM.

`CC(C)(C1CCN(C(=O)Nc2ccc(Cl)cc2)CC1)[C@@H](O)c1cc(Cl)cc2cn[nH]c12` [Compound P-0433, (R)-4-(1-(5-chloro-1H-indazol-7-yl)-1-hydroxy-2-methylpropan-2-yl)-N-(4-chlorophenyl) piperidine-1-carboxamide]: the IC50 in test [1] is 0.0001 to 10 µM; in test [2], over 200 µM; in test [3], 0.0001 to 10 µM; in test [4], 0.0001 to 10 µM.

On to `CC(C)(C1CCN(C(=O)Nc2cccc(F)c2)CC1)[C@@H](O)c1cc(Cl)cc2cn[nH]c12` [Compound P-0434, (R)-4-(1-(5-chloro-1H-indazol-7-yl)-1-hydroxy-2-methylpropan-2-yl)-N-(3-fluorophenyl) piperidine-1-carboxamide], for which the IC50 in test [1] lay within 0.0001 to 10 µM; in test [2], 10 to 100 µM; in test [3], 0.0001 to 10 µM; in test [4], 0.0001 to 10 µM.

Regarding `COCC(=O)N1CCC(C(C)(C)[C@@H](O)c2cc(Cl)cc3cn[nH]c23)CC1` [Compound P-0435, (R)-1-(4-(1-(5-chloro-1H-indazol-7-yl)-1-hydroxy-2-methylpropan-2-yl)piperidin-1-yl)-2-methoxyethan-1-one], the IC50 in test [1], in test [2], in test [3] and in test [4] was 0.0001 to 10 µM each time.

As for `CC(C)(C1CCN(C(=O)CC#N)CC1)[C@@H](O)c1cc(Cl)cc2cn[nH]c12` [Compound P-0436, (R)-3-(4-(1-(5-chloro-1H-indazol-7-yl)-1-hydroxy-2-methylpropan-2-yl)piperidin-1-yl)-3-oxopropanenitrile], the IC50 in test [1], in test [2], in test [3] and in test [4] was 0.0001 to 10 µM each time.

`CC(C)(C1CCN(C(=O)Nc2ccccc2C(F)(F)F)CC1)[C@@H](O)c1cc(Cl)cc2cn[nH]c12` [Compound P-0437, (R)-4-(1-(5-chloro-1H-indazol-7-yl)-1-hydroxy-2-methylpropan-2-yl)-N-(2-(trifluoromethyl)phenyl)piperidine-1-carboxamide]: the IC50 was 0.0001 to 10 µM in test [1], 0.0001 to 10 µM in test [2], over 10 µM in test [3] and over 10 µM in test [4].

Consider `CC(C)(C(O)c1cc(Cl)cc2cn[nH]c12)[C@H]1C[C@H]2CC[C@@H](C1)N2C(=O)NCC(F)(F)F` (stereo partly drawn) [Compound P-0438, (1R,3r,5S)-3-(1-(5-chloro-1H-indazol-7-yl)-1-hydroxy-2-methylpropan-2-yl)-N-(2,2,2-trifluoroethyl)-8-azabicyclo[3.2.1] octane-8-carboxamide], for which the IC50 in test [1], in test [2], in test [3] and in test [4] was 0.0001 to 10 µM in each case.

For `CC(C)(C(O)c1cc(Cl)cc2cn[nH]c12)[C@H]1C[C@H]2CC[C@@H](C1)N2C(=O)NC1CC1` (stereo partly drawn) [Compound P-0439, (1R,3r,5S)-3-(1-(5-chloro-1H-indazol-7-yl)-1-hydroxy-2-methylpropan-2-yl)-N-cyclopropyl-8-azabicyclo [3.2.1]octane-8-carboxamide], the IC50 in test [1], in test [2], in test [3] and in test [4] was 0.0001 to 10 µM throughout.

These data come from patent publication US10508085B2, “Compounds and methods for IDO and TDO modulation, and indications therefor” (Plexxikon Inc., priority 2016, dated 2019).
